Usually half-life stands for how long it takes for the measured level to halve. A lower half-life goes with fast loss. What is called microsomal CLint is the capacity of the preparation to metabolise the compound, expressed as a volume cleared per time. The low end stands for greater metabolic stability, the high end for faster metabolism.

The values below come from patent US11344510B2, “Arylcyclohexylamine derivatives and their use in the treatment of psychiatric disorders” (Gilgamesh Pharmaceuticals, Inc., priority 2019, dated 2022).

A short description of data set [1]: HLM stability (Low Activity, Alternative Method). It counts as in vitro ADME. The settings on record: both sexes, human, liver microsomes, pH 7.4, Condition 1 column, values marked *: Low Activity, 0.50 mg protein/mL. In short, it runs like this: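 Pooled male and female human liver microsomes (0.50 mg/mL) in 100 mM PBS pH 7.4 with 1 mM MgCl2 and 1 mM NADPH, compound 1 μM (1.0% solvent), 37° C with shaking, six time points over 60 min. Parent remaining measured by LC-MS/MS; kel, t1/2 and Clint from linear regression of ln(AUC) versus time.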
(Liver microsomes are a subcellular fraction often used to study metabolism.)

Data set [2] can be described thus: HLM stability (Low Activity). The settings on record: both sexes, human, liver microsomes, pH 7.4, Condition 1 (Low Activity), 0.42 mg protein/mL. It counts as in vitro ADME.
Data set [3] deals with mice (forced swim test). As to the kind of experiment: Forced swim test in mice, 30-minute pre-treatment. It counts as in vivo, Swiss Webster mice. The settings on record: s.c., 30 minutes before test, relative to vehicle. The protocol:
Animals. Male Swiss Webster mice, aged 4-5 weeks (body weight 25-30 g, Envigo) were used in the experiments Animals were housed in groups of 4-5 under controlled temperatures and 12-hour light/dark cycles, with ad libitum food (Teklad 7001 rodent diet) and water. These studies were carried out in strict accordance with the recommendations in the Guide for the Care and Use of Laboratory Animals of the National Institutes of Health. All efforts were made to minimize suffering.
Drugs and Drug Administration. Imipramine hydrochloride was administered intraperitoneally (i.p.) at a dose of 30 mg/kg. Other compounds were tested as the racemates (indicated by “rac” nomenclature) and were administered subcutaneously (s.c.) as the hydrochloride salts. Normal saline was used as the vehicle and all compounds were administered at a volume of 10 mL/kg, 30 minutes before behavioral testing.
Forced Swim Test (FST). Group size was n=10 per treatment Animals were acclimated to the testing room 30 minutes prior to behavioral testing. Mice were placed individually in a cylinder of water measuring 5 inches wide by 10 inches tall and maintained at 24-25° C. The activity of each mouse was recorded for 6 minutes using Noldus Ethovision tracking software, with periods of inactivity being automatically quantified.
Statistical Analysis. The data points shown are the mean±standard error of the mean (SEM). Analysis was performed using GraphPad Prism 6. Indicated statistical comparisons represent the results of unpaired, two-tailed t tests relative to vehicle (not corrected for multiple comparisons).

Data set [4] concerns mice (conditioned place preference model of abuse liability). The data set can be described thus: Conditioned place preference in mice. The settings on record: s.c., 3 drug conditioning trials, relative to saline vehicle. It counts as in vivo, C57BL/6 mice. The procedure:
Animals. Male C57BL/6 mice, 5-8 weeks of age, (body weight 25-30 g; Envigo, Indianapolis, Ind., USA) were housed 5 per polycarbonate tub with soft bedding in a temperature- and humidity-controlled vivarium. Mice were maintained under a 12-h light/dark cycle with lights on at 06:00. Food and water were available ad libitum Animals acclimated to the vivarium 1 week prior to experimental manipulations.
Drugs and Drug Administration. Test compounds and saline vehicle were administered subcutaneously (s.c.), with doses calculated based on the HCl salt, while the positive control oxycodone was administered intraperitoneally (i.p.), with the dose calculated based on the HCl salt. Normal saline was used as the vehicle. […]
Conditioned Place Preference. Reward and/or aversion was assessed in conditioned place preference chambers (Model MED-CPP-3013; Med Associates, St. Albans, Vt.). […]
Group size was n=10 per treatment. […] Final drug preference is assessed in a 15-minute post-conditioning trial and is calculated by subtracting the time in the drug-paired compartment at baseline from the time in the drug-paired compartment post-conditioning, with positive values reflecting reward and negative values reflecting aversion.
For all trials, time spent in chambers as well as movement was quantified by infrared photobeam detectors and calculated by Med-PC IV software. […]

Entries after “also recorded” stand apart in the source; their conditions may differ. Structures can show the parent of a compound that is named as a salt.

Take `Cc1ccccc1[C@]1(N)CCCCC1=O` [Compound 114R, (R)-2-amino-2-(o-tolyl)cyclohexan-1-one]: in data set [1], the half-life at 1 μM is more than 2.42 h and the microsomal CLint at 1 μM was less than 9.6 µL/min/mg.

In data set [2], `CNC1(c2ccccc2Cl)CCCCC1=O` (racemic) [rac-ketamine, racemic ketamine, reference compound] came in with a half-life at 2 μM of 1.31 h and an intrinsic clearance (microsomal CLint) at 2 μM of 21 µL/min/mg. Moreover, the “immobility time in FST” value in data set [3] was “did not have effects”.

Consider `CN[C@@]1(c2ccccc2)CCCCC1=O` [Compound 14R, (R)-2-(methylamino)-2-phenylcyclohexan-1-one], for which, in data set [4], the “conditioned place preference (abuse liability)” value is “neither preference nor aversion”.

In data set [2], `CNC1(c2ccccc2)CCCCC1=O` (racemic) [Compound 14rac, 2-(methylamino)-2-phenylcyclohexan-1-one hydrochloride] registered a half-life at 2 μM of 5.47 h and a microsomal CLint at 2 μM of 5 µL/min/mg. In data set [3] (hydrochloride), the “immobility time in FST” value is reported as “reduced time immobile; also recorded: induced antidepressant-like effects”.

In data set [1], `Cc1ccccc1[C@@]1(N)CCCCC1=O` [Compound 114S, (S)-2-amino-2-(o-tolyl)cyclohexan-1-one] returned a half-life at 1 μM of more than 2.42 h and an intrinsic clearance (microsomal CLint) at 1 μM of less than 9.6 µL/min/mg.

Turning to `CN[C@]1(c2ccccc2)CCCCC1=O` [Compound 14S, (S)-2-(methylamino)-2-phenylcyclohexan-1-one], the “conditioned place preference (abuse liability)” value in data set [4] was “dose-dependent and significant preference”.
